Results reported in patent US20140357713A1, “ANTIMICROBIAL COMPOUNDS AND METHODS OF USE” (NexMed Holdings, Inc., priority 2012, published 2014).

Assays:
Experiment in all cases: Extended time kill study, Example 34 (0 to 24 h)
Format in all cases: cell-based
Aspergillus niger = test system: Aspergillus niger
Protocol: (§1) Time kill studies. Strain suspensions were prepared as described above for the MIC test, and strain suspensions and compound solutions were mixed in the same volume. Samples were removed at specified times including 0 min, 30 sec, 1 min and 5 mins, were diluted in the test medium and streaked on agar. Colonies were counted after 24 to 48 hrs of incubation.
(§2) The time kill studies of Example 33 were extended for five compounds (Nex-59, Nex-60, Nex-61, Nex-62, and Nex-88) using the same methods at longer time periods and at higher multiples of MIC. Nex-88 is a code number for DDAIP.HCl from a different supplier.

Candida albicans = test system: Candida albicans
Protocol: as §1, §2

Escherichia coli = test system: Escherichia coli
Protocol: as §1, §2

Pseudomonas aeruginosa = test system: Pseudomonas aeruginosa
Protocol: as §1, §2

Staphylococcus aureus = test system: Staphylococcus aureus
Protocol: as §1, §2

CCCCCCCCCCCCOC(=O)C(C)NCCO.Cl (stereo not drawn) [Nex-61, Dodecyl 2-((2-hydroxyethyl)amino)propanoate hydrochloride]
Viable counts in Log10 CFU/mL (Aspergillus niger; 1 × MIC, 1 h): 5.48 Log10 CFU/mL | Viable counts in Log10 CFU/mL (Aspergillus niger; 1 × MIC, 2 h): 5.36 Log10 CFU/mL | Viable counts in Log10 CFU/mL (Aspergillus niger; 1 × MIC, 4 h): 5.18 Log10 CFU/mL | Viable counts in Log10 CFU/mL (Aspergillus niger; 1 × MIC, 6 h): 4.95 Log10 CFU/mL | Viable counts in Log10 CFU/mL (Aspergillus niger; 1 × MIC, 24 h): 4.48 Log10 CFU/mL | Viable counts in Log10 CFU/mL (Aspergillus niger; 1 × MIC, 0 h): 5.28 Log10 CFU/mL | Viable counts in Log10 CFU/mL (Aspergillus niger; 2 × MIC, 1 h): 5.52 Log10 CFU/mL | Viable counts in Log10 CFU/mL (Aspergillus niger; 2 × MIC, 2 h): 5.57 Log10 CFU/mL | Viable counts in Log10 CFU/mL (Aspergillus niger; 2 × MIC, 4 h): 4.48 Log10 CFU/mL | Viable counts in Log10 CFU/mL (Aspergillus niger; 2 × MIC, 6 h): 4.90 Log10 CFU/mL | Viable counts in Log10 CFU/mL (Aspergillus niger; 2 × MIC, 24 h): 3 Log10 CFU/mL | Viable counts in Log10 CFU/mL (Aspergillus niger; 2 × MIC, 0 h): 5.33 Log10 CFU/mL | Viable counts in Log10 CFU/mL (Aspergillus niger; 4 × MIC, 1 h): 5.34 Log10 CFU/mL | Viable counts in Log10 CFU/mL (Aspergillus niger; 4 × MIC, 2 h): 5.41 Log10 CFU/mL | Viable counts in Log10 CFU/mL (Aspergillus niger; 4 × MIC, 4 h): 5.28 Log10 CFU/mL | Viable counts in Log10 CFU/mL (Aspergillus niger; 4 × MIC, 6 h): 4.95 Log10 CFU/mL | Viable counts in Log10 CFU/mL (Aspergillus niger; 4 × MIC, 24 h): <2 Log10 CFU/mL | Viable counts in Log10 CFU/mL (Aspergillus niger; 4 × MIC, 0 h): 5.26 Log10 CFU/mL | Viable counts in Log10 CFU/mL (Candida albicans; 1 × MIC, 1 h): 5.37 Log10 CFU/mL | Viable counts in Log10 CFU/mL (Candida albicans; 1 × MIC, 2 h): 5.37 Log10 CFU/mL | Viable counts in Log10 CFU/mL (Candida albicans; 1 × MIC, 4 h): 5.32 Log10 CFU/mL | Viable counts in Log10 CFU/mL (Candida albicans; 1 × MIC, 6 h): 5.54 Log10 CFU/mL | Viable counts in Log10 CFU/mL (Candida albicans; 1 × MIC, 24 h): >6 Log10 CFU/mL | Viable counts in Log10 CFU/mL (Candida albicans; 1 × MIC, 0 h): 5.43 Log10 CFU/mL | Viable counts in Log10 CFU/mL (Candida albicans; 2 × MIC, 1 h): <3 Log10 CFU/mL | Viable counts in Log10 CFU/mL (Candida albicans; 2 × MIC, 2 h): <3 Log10 CFU/mL | Viable counts in Log10 CFU/mL (Candida albicans; 2 × MIC, 4 h): <2.70 Log10 CFU/mL | Viable counts in Log10 CFU/mL (Candida albicans; 2 × MIC, 6 h): <2.70 Log10 CFU/mL | Viable counts in Log10 CFU/mL (Candida albicans; 2 × MIC, 24 h): >6 Log10 CFU/mL | Viable counts in Log10 CFU/mL (Candida albicans; 2 × MIC, 0 h): 5.48 Log10 CFU/mL | Viable counts in Log10 CFU/mL (Candida albicans; 4 × MIC, 1 h): <3 Log10 CFU/mL | Viable counts in Log10 CFU/mL (Candida albicans; 4 × MIC, 2 h): <3 Log10 CFU/mL | Viable counts in Log10 CFU/mL (Candida albicans; 4 × MIC, 4 h): <2.70 Log10 CFU/mL | Viable counts in Log10 CFU/mL (Candida albicans; 4 × MIC, 6 h): <2.70 Log10 CFU/mL | Viable counts in Log10 CFU/mL (Candida albicans; 4 × MIC, 24 h): <1 Log10 CFU/mL | Viable counts in Log10 CFU/mL (Candida albicans; 4 × MIC, 0 h): 5.39 Log10 CFU/mL | Viable counts, Escherichia coli time kill study (Escherichia coli; 1 × MIC, 1 h): 1.70 Log10 CFU/mL | Viable counts, Escherichia coli time kill study (Escherichia coli; 1 × MIC, 2 h): 1.60 Log10 CFU/mL | Viable counts, Escherichia coli time kill study (Escherichia coli; 1 × MIC, 4 h): 3.16 Log10 CFU/mL | Viable counts, Escherichia coli time kill study (Escherichia coli; 1 × MIC, 6 h): 4.38 Log10 CFU/mL | Viable counts, Escherichia coli time kill study (Escherichia coli; 1 × MIC, 24 h): 7.75 Log10 CFU/mL | Viable counts, Escherichia coli time kill study (Escherichia coli; 1×MIC, time 0): 5.08 Log10 CFU/mL | Viable counts, Escherichia coli time kill study (Escherichia coli; 2 × MIC, 1 h): <1 Log10 CFU/mL | Viable counts, Escherichia coli time kill study (Escherichia coli; 2 × MIC, 2 h): <1 Log10 CFU/mL | Viable counts, Escherichia coli time kill study (Escherichia coli; 2 × MIC, 4 h): <1 Log10 CFU/mL | Viable counts, Escherichia coli time kill study (Escherichia coli; 2 × MIC, 6 h): <1 Log10 CFU/mL | Viable counts, Escherichia coli time kill study (Escherichia coli; 2 × MIC, 24 h): <1 Log10 CFU/mL | Viable counts, Escherichia coli time kill study (Escherichia coli; 2 × MIC, time 0): 5.03 Log10 CFU/mL | Viable counts, Escherichia coli time kill study (Escherichia coli; 4 × MIC, 1 h): <1 Log10 CFU/mL | Viable counts, Escherichia coli time kill study (Escherichia coli; 4 × MIC, 2 h): <1 Log10 CFU/mL | Viable counts, Escherichia coli time kill study (Escherichia coli; 4 × MIC, 4 h): <1 Log10 CFU/mL | Viable counts, Escherichia coli time kill study (Escherichia coli; 4 × MIC, 6 h): <1 Log10 CFU/mL | Viable counts, Escherichia coli time kill study (Escherichia coli; 4 × MIC, 24 h): <1 Log10 CFU/mL | Viable counts, Escherichia coli time kill study (Escherichia coli; 4 × MIC, time 0): 5.05 Log10 CFU/mL | Viable counts, Pseudomonas aeruginosa time kill study (Pseudomonas aeruginosa; 1 × MIC, 1 h): <1 Log10 CFU/mL | Viable counts, Pseudomonas aeruginosa time kill study (Pseudomonas aeruginosa; 1 × MIC, 2 h): <1 Log10 CFU/mL | Viable counts, Pseudomonas aeruginosa time kill study (Pseudomonas aeruginosa; 1 × MIC, 4 h): <1 Log10 CFU/mL | Viable counts, Pseudomonas aeruginosa time kill study (Pseudomonas aeruginosa; 1 × MIC, 6 h): <1 Log10 CFU/mL | Viable counts, Pseudomonas aeruginosa time kill study (Pseudomonas aeruginosa; 1 × MIC, 24 h): <1 Log10 CFU/mL | Viable counts, Pseudomonas aeruginosa time kill study (Pseudomonas aeruginosa; 1×MIC, time 0): 5.28 Log10 CFU/mL | Viable counts, Pseudomonas aeruginosa time kill study (Pseudomonas aeruginosa; 2 × MIC, 1 h): <1 Log10 CFU/mL | Viable counts, Pseudomonas aeruginosa time kill study (Pseudomonas aeruginosa; 2 × MIC, 2 h): <1 Log10 CFU/mL | Viable counts, Pseudomonas aeruginosa time kill study (Pseudomonas aeruginosa; 2 × MIC, 4 h): <1 Log10 CFU/mL | Viable counts, Pseudomonas aeruginosa time kill study (Pseudomonas aeruginosa; 2 × MIC, 6 h): <1 Log10 CFU/mL | Viable counts, Pseudomonas aeruginosa time kill study (Pseudomonas aeruginosa; 2 × MIC, 24 h): <1 Log10 CFU/mL | Viable counts, Pseudomonas aeruginosa time kill study (Pseudomonas aeruginosa; 2 × MIC, time 0): 5.29 Log10 CFU/mL | Viable counts, Pseudomonas aeruginosa time kill study (Pseudomonas aeruginosa; 4 × MIC, 1 h): <1 Log10 CFU/mL | Viable counts, Pseudomonas aeruginosa time kill study (Pseudomonas aeruginosa; 4 × MIC, 2 h): <1 Log10 CFU/mL | Viable counts, Pseudomonas aeruginosa time kill study (Pseudomonas aeruginosa; 4 × MIC, 4 h): <1 Log10 CFU/mL | Viable counts, Pseudomonas aeruginosa time kill study (Pseudomonas aeruginosa; 4 × MIC, 6 h): <1 Log10 CFU/mL | Viable counts, Pseudomonas aeruginosa time kill study (Pseudomonas aeruginosa; 4 × MIC, 24 h): <1 Log10 CFU/mL | Viable counts, Pseudomonas aeruginosa time kill study (Pseudomonas aeruginosa; 4 × MIC, time 0): 5.26 Log10 CFU/mL | Viable counts, Staphylococcus aureus time kill study (Staphylococcus aureus; 1 × MIC, 1 h): 5 Log10 CFU/mL | Viable counts, Staphylococcus aureus time kill study (Staphylococcus aureus; 1 × MIC, 2 h): <3 Log10 CFU/mL | Viable counts, Staphylococcus aureus time kill study (Staphylococcus aureus; 1 × MIC, 4 h): <3 Log10 CFU/mL | Viable counts, Staphylococcus aureus time kill study (Staphylococcus aureus; 1 × MIC, 6 h): <3 Log10 CFU/mL | Viable counts, Staphylococcus aureus time kill study (Staphylococcus aureus; 1 × MIC, 24 h): <1 Log10 CFU/mL | Viable counts, Staphylococcus aureus time kill study (Staphylococcus aureus; 1×MIC, time 0): 6.14 Log10 CFU/mL | Viable counts, Staphylococcus aureus time kill study (Staphylococcus aureus; 2 × MIC, 1 h): <3 Log10 CFU/mL | Viable counts, Staphylococcus aureus time kill study (Staphylococcus aureus; 2 × MIC, 2 h): <3 Log10 CFU/mL | Viable counts, Staphylococcus aureus time kill study (Staphylococcus aureus; 2 × MIC, 4 h): <3 Log10 CFU/mL | Viable counts, Staphylococcus aureus time kill study (Staphylococcus aureus; 2 × MIC, 6 h): <3 Log10 CFU/mL | Viable counts, Staphylococcus aureus time kill study (Staphylococcus aureus; 2 × MIC, 24 h): <1 Log10 CFU/mL | Viable counts, Staphylococcus aureus time kill study (Staphylococcus aureus; 2 × MIC, time 0): 6.20 Log10 CFU/mL | Viable counts, Staphylococcus aureus time kill study (Staphylococcus aureus; 4 × MIC, 1 h): <3 Log10 CFU/mL | Viable counts, Staphylococcus aureus time kill study (Staphylococcus aureus; 4 × MIC, 2 h): <3 Log10 CFU/mL | Viable counts, Staphylococcus aureus time kill study (Staphylococcus aureus; 4 × MIC, 4 h): <3 Log10 CFU/mL | Viable counts, Staphylococcus aureus time kill study (Staphylococcus aureus; 4 × MIC, 6 h): <3 Log10 CFU/mL | Viable counts, Staphylococcus aureus time kill study (Staphylococcus aureus; 4 × MIC, 24 h): <1 Log10 CFU/mL | Viable counts, Staphylococcus aureus time kill study (Staphylococcus aureus; 4 × MIC, time 0): 6.18 Log10 CFU/mL
